Reference: patent US12384743B2, “Compositions comprising (R)-2-amino-3-phenylpropyl carbamate and uses thereof” (priority 2016, dated 2025)
Where a name gives a salt, the structure may show the parent alone. Read-outs that look alike come from different tables or passages of the source.

Columns and labels:
[1] = Humidity stressing of Form A; format: physicochemical; conditions: approximately 75% humidity (RH)
[2] = format: physicochemical; conditions: for relative humidity at which conversion to Form B occurred: slurrying Form A only
Experimental: Slurry experiments were performed with various water activities starting with Form A only and also by conducting interconversion slurries or pre-saturating solutions with APC and then adding equal amounts of Form A and Form B. When slurrying Form A only, conversion to Form B at room temperature occurred at 67% RH, and 40% RH at 2-8° C. With the interconversion slurries, Form B was isolated from all experiments with relative humidities ranging from 50% to 70%.

[3] = Aqueous solubility of Form B in different pH buffers; format: physicochemical; conditions: thermodynamic from solid
[4] = Drying of Form B in scaled-up method (low vacuum); format: physicochemical; conditions: oven temperature 20-25° C., low vacuum (700-750 mbar)
Experimental: An additional scaled-up method for producing Form B was developed that reduced reaction time and volume and increased yield. Isolation of Form B from Form A was carried out in 5 volumes of solvent (acetonitrile:water (95%:5% v:v)) at about 20° C. for about 1-2 hours. The drying process was carried out at an oven temperature of 20-25° C. and low vacuum (700-750 mbar). Under these drying conditions Form B was stable and no detectable Form A was formed. This method was used on a 4.5 kg batch of APC and produced Form B with a yield of 93.7%.

[5] = Drying studies on Form B (temperature, vacuum, milling, desiccant, low RH stressing); format: physicochemical
Experimental: Drying studies were performed on Form B. The drying experiments were performed under various temperatures with and without vacuum. Additionally, milling, storage under desiccant, and low RH stressing were conducted.

| SMILES | solid form after humidity stressing [1] | relative humidity at which conversion to Form B occurred ([2]; 2-8° C.) | relative humidity at which conversion to Form B occurred ([2]; room temperature) | solubility ([3]; aqueous buffer, Buffer solution pH 4.5, pH (buffer) measured starting conditions 4.5, pH (buffered sample) 5.7, read-out: Solubility (mg/ml mean of triplicates)) | solubility ([3]; aqueous buffer, Buffer solution pH 5.5, pH (buffer) measured starting conditions 5.5, pH (buffered sample) 6.0, read-out: Solubility (mg/ml mean of triplicates)) | solubility ([3]; aqueous buffer, Buffer solution pH 7.4, pH (buffer) measured starting conditions 7.4, pH (buffered sample) 6.4, read-out: Solubility (mg/ml mean of triplicates)) | solubility ([3]; aqueous buffers of different pH, aqueous buffer, different pH buffers, read-out: aqueous solubility) | solubility ([3]; buffer solution, aqueous buffer, pH 1-6.5, read-out: solubility in buffer solution) | solubility ([3]; simulated gastric fluid, Buffer solution pH 1.2, pH (buffer) measured starting conditions 1.2, pH (buffered sample) 4.5, read-out: Solubility (mg/ml mean of triplicates)) | relative stability of solid forms ([2]; interconversion slurry of Form A and Form B, approximately 50% RH or greater at room temperature) | stability of solid form on drying [4] | stability of solid form (overall result of the drying studies) ([5]; low RH or elevated temperature) | solid form after drying/stress ([5]; vacuum drying at 50° C. 1 day, heating at 80° C. 1 day, milling) | solid form after drying/stress ([5]; vacuum drying at ambient temperature 1 day, heating at 40° C. 1 day, storage under desiccant 1 day, stressing at 33% RH 2 weeks) |
| --- | --- | --- | --- | --- | --- | --- | --- | --- | --- | --- | --- | --- | --- | --- |
| NC(=O)OC[C@H](N)Cc1ccccc1 [Form A, (R)-2-amino-3-phenylpropyl carbamate hydrochloride] | Partial conversion to Form B | 40 % RH | 67 % RH |  |  |  |  |  |  |  |  |  |  |  |
| NC(=O)OC[C@H](N)Cc1ccccc1 [Form B, (R)-2-amino-3-phenylpropyl carbamate hydrochloride] |  |  |  | 733 mg/mL | 742 mg/mL | 746 mg/mL | > 700 mg/mL | 700 to 750 mg/mL | 732 mg/mL | more stable form | stable | not stable | Full dehydration to Form A | Partial conversion to Form A |
